According to US10919889B2, “Chiral heterocyclic compound with hedgehog pathway antagonist activity, method and use thereof” (SUZHOU KINTOR PHARMACEUTICALS, INC., priority 2016, dated 2021):
Like-named read-outs stand apart in the source and are kept apart here.

How the values were obtained:
Assay type in all cases: in vitro ADME
CYP2D6 = target: T1, CYP2D6 (Homo sapiens, UniProt P10635); assay: CYP liver enzyme inhibition experiment, CYP-2D6; conditions: human liver microsomes, pH 7.4, probe dextromethorphan, test compound 10 μM, HLM, dextromethorphan 5 μM, read-out: CYP-2D6 Inhibitory rate (%)
T1 construct: containing HLM (0.2 mg/mL), phosphate buffer (100 mM, pH 7.4); from tissue; host or cells: liver microsomes (HLM)
T1 sequence (P10635 whole entry): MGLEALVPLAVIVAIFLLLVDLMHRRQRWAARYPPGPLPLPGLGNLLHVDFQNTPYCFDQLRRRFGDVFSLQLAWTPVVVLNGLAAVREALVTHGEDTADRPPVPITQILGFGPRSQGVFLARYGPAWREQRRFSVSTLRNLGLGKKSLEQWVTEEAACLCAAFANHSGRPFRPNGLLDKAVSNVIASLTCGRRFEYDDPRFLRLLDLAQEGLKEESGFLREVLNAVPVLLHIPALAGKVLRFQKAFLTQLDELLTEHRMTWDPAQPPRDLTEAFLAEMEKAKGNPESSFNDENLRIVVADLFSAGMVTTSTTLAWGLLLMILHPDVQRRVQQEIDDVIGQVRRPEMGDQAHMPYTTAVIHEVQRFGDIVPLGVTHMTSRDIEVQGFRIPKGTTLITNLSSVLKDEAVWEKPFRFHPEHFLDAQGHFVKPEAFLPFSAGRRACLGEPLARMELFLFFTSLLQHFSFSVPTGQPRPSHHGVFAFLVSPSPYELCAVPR
Description: (§1) The five major CYP isozymes and their respective probe substrates were: CYP-1A2 (phenacetin, 30 μM), CYP-2C9 (toluenesulfonylurea, 100 μM), CYP-2C19 40 μM), CYP-2D6 (dextromethorphan, 5 μM) and CYP-3A4 (midazolam, 1 μM). All probes were used close to or below their KMS concentrations. The mixture (200 μL) was incubated in a 37° C. constant temperature water bath, containing HLM (0.2 mg/mL), phosphate buffer (100 mM, pH 7.4), NADPH […], test compound (10 μM) and the respective CYP probe substrate. Before the reaction with NADPH, the mixture was pre-incubated for 10 minutes to undergo inhibitor-enzyme interaction. After a specific period of time (10 minutes for CYP-1A2, 2D6 and 3A4; 30 minutes for CYP-2C9 and 2C19), the reaction was quenched by addition to 100 μL solution of appropriate amount of cold acetonitrile. Reaction system was centrifuged and injected into the LC-MS/MS to quantify the concentration of specific metabolite formed from the substrate and the CYP enzyme. Each test compound was tested at least three times independently. […]
(§2) Before the start of the reaction with NADPH, the above mixture can be pre-incubated for about 10 minutes to allow inhibitor-enzyme interactions. […] The quenched mixture can be centrifuged, and aliquots of the mixture can then be analyzed by LC-MS/MS to quantify the concentrations of specific metabolic products for each CYP isozyme. […]

CYP1A2 = target: T2, CYP1A2 (Homo sapiens, UniProt P05177); assay: CYP liver enzyme inhibition experiment, CYP-1A2; conditions: human liver microsomes, pH 7.4, probe phenacetin, test compound 10 μM, HLM, phenacetin 30 μM, read-out: CYP-1A2 Inhibitory rate (%)
T2 construct: containing HLM (0.2 mg/mL), phosphate buffer (100 mM, pH 7.4); from tissue; host or cells: liver microsomes (HLM)
T2 sequence (P05177 1-516): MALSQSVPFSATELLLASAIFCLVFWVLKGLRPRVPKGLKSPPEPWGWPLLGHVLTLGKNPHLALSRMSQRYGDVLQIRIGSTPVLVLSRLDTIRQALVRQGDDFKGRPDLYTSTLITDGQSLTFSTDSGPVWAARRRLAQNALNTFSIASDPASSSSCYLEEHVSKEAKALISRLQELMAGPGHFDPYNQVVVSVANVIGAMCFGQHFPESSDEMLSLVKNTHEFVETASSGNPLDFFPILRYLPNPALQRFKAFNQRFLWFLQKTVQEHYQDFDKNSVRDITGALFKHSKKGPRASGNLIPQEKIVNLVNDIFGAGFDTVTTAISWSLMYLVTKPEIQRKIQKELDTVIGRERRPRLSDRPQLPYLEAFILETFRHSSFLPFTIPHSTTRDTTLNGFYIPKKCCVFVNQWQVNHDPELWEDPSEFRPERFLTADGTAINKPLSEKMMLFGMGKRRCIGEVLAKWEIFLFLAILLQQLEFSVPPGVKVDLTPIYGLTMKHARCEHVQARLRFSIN
Description: as §1, §2

CYP2C9 = target: T3, CYP2C9 (Homo sapiens, UniProt P11712); assay: CYP liver enzyme inhibition experiment, CYP-2C9; conditions: human liver microsomes
T3 construct: containing HLM (0.2 mg/mL), phosphate buffer (100 mM, pH 7.4); from tissue; host or cells: liver microsomes (HLM)
T3 sequence (P11712 whole entry): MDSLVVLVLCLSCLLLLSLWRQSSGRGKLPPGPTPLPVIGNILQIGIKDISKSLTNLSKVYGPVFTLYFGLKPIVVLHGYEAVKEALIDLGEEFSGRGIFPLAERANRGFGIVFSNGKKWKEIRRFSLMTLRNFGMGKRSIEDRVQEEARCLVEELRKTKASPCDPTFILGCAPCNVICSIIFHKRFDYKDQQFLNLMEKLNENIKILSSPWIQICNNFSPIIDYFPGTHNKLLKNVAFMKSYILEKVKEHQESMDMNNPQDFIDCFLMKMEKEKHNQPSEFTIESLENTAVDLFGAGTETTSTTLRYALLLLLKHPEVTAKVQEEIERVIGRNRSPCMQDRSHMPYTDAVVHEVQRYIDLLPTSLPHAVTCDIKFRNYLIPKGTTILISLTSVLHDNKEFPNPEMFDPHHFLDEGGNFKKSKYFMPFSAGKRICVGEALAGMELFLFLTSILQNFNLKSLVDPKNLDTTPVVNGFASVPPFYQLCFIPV
Description: The five major CYP isozymes and their respective probe substrates were: CYP-1A2 (phenacetin, 30 μM), CYP-2C9 (toluenesulfonylurea, 100 μM), CYP-2C19 40 μM), CYP-2D6 (dextromethorphan, 5 μM) and CYP-3A4 (midazolam, 1 μM). All probes were used close to or below their KMS concentrations. The mixture (200 μL) was incubated in a 37° C. constant temperature water bath, containing HLM (0.2 mg/mL), phosphate buffer (100 mM, pH 7.4), NADPH […], test compound (10 μM) and the respective CYP probe substrate. Before the reaction with NADPH, the mixture was pre-incubated for 10 minutes to undergo inhibitor-enzyme interaction. After a specific period of time (10 minutes for CYP-1A2, 2D6 and 3A4; 30 minutes for CYP-2C9 and 2C19), the reaction was quenched by addition to 100 μL solution of appropriate amount of cold acetonitrile. Reaction system was centrifuged and injected into the LC-MS/MS to quantify the concentration of specific metabolite formed from the substrate and the CYP enzyme. Each test compound was tested at least three times independently.
Five major CYP isozymes and their corresponding substrates are: CYP-1A2 (phenacetin, 30 μM), […], CYP2C19 (S-mephenytoin, 40 μM), CYP2D6 (dextromethorphan, 5 μM), and CYP3A4 (midazolam, 1 μM), respectively. All probe substrates were used at or lower than their KMS concentrations.
A mixture (200 μL) can be incubated at 37° C. This mixture can comprise HLM (0.2 mg/mL), phosphate buffer (100 mM, pH at about 7.4), nicotinamide adenine dinucleotide phosphate (NADPH) […], a testing compound (compound B or compound B1), and the individual substrate for the CYP isozyme tested.
Before the start of the reaction with NADPH, the above mixture can be pre-incubated for about 10 minutes to allow inhibitor-enzyme interactions. Then at specific time points (10 minutes time point for CYP-1A2, 2D6 and 3A4; 30 minutes time point for CYP-2C9 and 2C19), the reaction can be quenched by the addition of about 100 μL cold acetonitrile. The quenched mixture can be centrifuged, and aliquots of the mixture can then be analyzed by LC-MS/MS to quantify the concentrations of specific metabolic products for each CYP isozyme. For each testing compound, at least three independent assays can be completed.

CYP2C19 = target: T4, CYP2C19 (Homo sapiens, UniProt P33261); assay: CYP liver enzyme inhibition experiment, CYP-2C19; conditions: human liver microsomes, pH 7.4, probe S-mephenytoin, 40 µM, test compound 10 μM, HLM, read-out: CYP-2C19 Inhibitory rate (%)
T4 construct: containing HLM (0.2 mg/mL), phosphate buffer (100 mM, pH 7.4); from tissue; host or cells: liver microsomes (HLM)
T4 sequence (P33261 whole entry): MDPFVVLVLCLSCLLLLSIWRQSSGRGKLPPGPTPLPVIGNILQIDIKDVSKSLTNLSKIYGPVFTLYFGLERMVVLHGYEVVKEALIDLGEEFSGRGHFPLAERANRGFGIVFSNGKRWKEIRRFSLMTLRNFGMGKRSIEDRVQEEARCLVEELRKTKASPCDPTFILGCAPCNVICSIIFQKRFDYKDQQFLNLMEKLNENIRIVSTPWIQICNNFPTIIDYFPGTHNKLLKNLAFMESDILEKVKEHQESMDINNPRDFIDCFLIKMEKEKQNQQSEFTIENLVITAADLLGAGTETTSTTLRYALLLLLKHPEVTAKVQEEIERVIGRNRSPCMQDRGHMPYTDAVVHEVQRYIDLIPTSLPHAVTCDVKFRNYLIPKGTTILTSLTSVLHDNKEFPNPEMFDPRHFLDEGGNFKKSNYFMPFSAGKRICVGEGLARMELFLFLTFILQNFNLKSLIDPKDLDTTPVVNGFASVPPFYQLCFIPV
Description: as §1, §2

[1] = pH 7.4, probe tolbutamide (tolbutamide hydroxylation), Table 6, HLM, read-out: CYP-2C9 Inhibition (%)
[2] = pH 7.4, probe toluenesulfonylurea (tolbutamide), 100 µM, at 10 μM, read-out: inhibitory activity against CYP-2C9
[3] = pH 7.4, probe toluenesulfonylurea (tolbutamide), 100 µM, at a concentration of 10M, read-out: inhibitory rate to CYP-2C9
[4] = pH 7.4, probe toluenesulfonylurea (tolbutamide), 100 µM, test compound 10 μM, HLM, read-out: CYP-2C9 Inhibitory rate (%)

| Structure (SMILES) | inhibition at 10 min, 10 µM (CYP2D6) [%] | inhibition at 10 min, 10 µM (CYP1A2) [%] | inhibition at 30 min, 10 µM (CYP2C9; [1]) [%] | inhibition at 30 min, 10 µM (CYP2C9; [2]) [%] | inhibition at 30 min, 10 µM (CYP2C9; [3]) [%] | inhibition at 30 min, 10 µM (CYP2C9; [4]) [%] | inhibition at 30 min, 10 µM (CYP2C19) [%] |
| --- | --- | --- | --- | --- | --- | --- | --- |
| Cc1cnc(-c2cc(N3CCc4nc(N5CCC(O)CC5)ncc4[C@H]3C)ncc2Cl)c(C)c1 [Compound B1, (R)-1-(6-(5′-chloro-3,5-dimethyl-[2,4′-bipyridin]-2′-yl)-5-methyl-5,6,7,8-tetrahydropyrido[4,3-d]pyrimidin-2-yl)piperidin-4-ol] | 24 ± 3.5 | 22 ± 15 | 26 ± 6 | ~26 | 26 | 26 ± 6 | 43 ± 2.6 |
| Cc1cnc(-c2cc(N3CCc4nc(N5CCC(O)CC5)ncc4C3C)ncc2Cl)c(C)c1 (racemic) [B] | 30 ± 1.7 | 21 ± 1.3 | 52 ± 5.2 | ~52 | > 50 | 52 ± 5.2 | 44 ± 3.3 |
